In patent US7910557B2, “Hair care product” (Maruzen Pharmaceuticals Co., Ltd., priority 2005, dated 2011):

Columns and labels:
FGF-7 gene = assay: FGF-7 mRNA expression promotion in HFDPC (RT-PCR); type: cell-based, human; details: for mRNA expression promotion rate (%) FGF-7 mRNA: HFDPC, corrected by G3PDH, control = 100
Method: (§1) The FGF-7 growth promoting action, VEGF growth promoting action and BMP-2 growth promoting action of the corosolic acid obtained in producing examples 1 and 2 (samples 1 and 2) were tested as follows.
(§2) Human hair follicle dermal papilla cells (HFDPC) were cultured using a human hair follicle dermal papilla cells growth medium (PCGM), then the cells were retrieved by trypsinization. The retrieved cells were diluted to a cell concentration of 2×10^5 cells/ml using a DMEM medium containing 10% FBS, after which the cells were inoculated in 60 mm-diameter Petri dishes, at a rate of 5 ml, followed by incubation overnight.
(§3) Once incubation was over, the cells were changed to a serum-less DMEM medium to which the samples (sample 1 and 2) had been added after two-hour incubation, then the cells were dissolved in 1 ml of a reagent for RNA extraction (TRIzol, Invitrogen Corporation). After addition of 200 μl of chloroform to the solutions, these were centrifuged (12000 rpm, 4° C., 15 minutes) and the top RNA layer was isolated. The RNA layer was concentrated in isopropanol. The total RNA concentrated and precipitated was dissolved in a TE solution (10 mM Tris-HCl/1 mM EDTA, pH 8.0), and was taken as a total RNA standard (sequence numbers 1 to 3) used in a template of quantitative RT-PCR for measuring the mRNA expression level of the FGF-7 gene, the VEGF gene and the BMP-2 gene. […]
(§4) After synthesizing single-strand DNA from 500 ng of total RNA in a PCR apparatus (TaKaRa PCR Thermal Cycler MP, TAKARA BIO INC.), the FGF-7 gene (sequence no. 4), the VEGF gene (sequence no. 5), the BMP-2 gene (sequence no. 6), and the G3PDH gene as an internal standard were amplified by PCR reaction, from the single-strand DNA, using specific sense primers (sequence nos. 7 to 9) and antisense primers (sequence nos. 10 to 12) of the respective genes, then 10 μl of the amplified product were electrophoresed on 1.2% agarose gel. […] Then the RT-PCR products were quantitatively measured using KODAK 1D Image Analysis Software EDAS290 Version3.5. […]

[1] = system: Normal human head hair papilla cells; assay: Test for hair papilla cell growth promoting action (MTT assay); type: cell-based; details: for Hair papilla cell growth promotion rate (%): 4 days, control = 100
Method: Normal human head hair papilla cells were cultured using a papilla cell growth medium (Cell Application Inc.) containing 2% fetal bovine serum (FBS) and proliferation additives, then the cells were retrieved by trypsinization. The retrieved cells were diluted to a cell concentration of 1.0×10^4 cells/ml using a DMEM medium containing 10% FBS, after which the cells were inoculated in a collagen-coated 96-well plate, at a rate of 200 μl per well, followed by incubation for 3 days. After incubation, the medium was removed and then to the wells there were added 200 μl each of a sample solution in which a respective sample had been dissolved in serum-free DMEM. The wells were then incubated for a further 4 days.
Once incubation was over, the medium was removed, and then to the wells there was added 100 μl each of MTT dissolved in serum-free DMEM (final concentration 0.4 mg/ml). After 2 hours of incubation, the blue formazan formed inside the cells was extracted with 100 μl of 2-propanol. The absorbance of the extracts was measured at a 570 nm wavelength. Turbidity was measured at the same time, as absorbance at the 650 nm wavelength. The amount of blue formazan formed was taken as the difference between the two absorbances. As a control, the same measurements were carried out for specimens in which serum-less DMEM was added instead of the sample solutions. The hair papilla cell growth promotion rate (%) was calculated from the obtained results using the formula below. Hair papilla cell growth promotion rate(%)=A/B×100
In the formula, A represents “absorbance upon sample addition”, and B represents “absorbance without sample addition”.

VEGF gene = assay: VEGF mRNA expression promotion in HFDPC (RT-PCR); type: cell-based, human; details: for mRNA expression promotion rate (%) VEGF mRNA: HFDPC, corrected by G3PDH, control = 100
Method: as §1, §2, §3, §4

BMP-2 gene = assay: BMP-2 mRNA expression promotion in HFDPC (RT-PCR); type: cell-based, human; details: for mRNA expression promotion rate (%) BMP-2 mRNA: HFDPC, corrected by G3PDH, control = 100
Method: as §1, §2, §3, §4

[2] = target: T1, testosterone 5α-reductase (Rattus norvegicus, UniProt P24008); assay: Test for testosterone 5α-reductase inhibiting action (S-9 rat liver homogenate, GC quantification); type: biochemical
T1 construct: 75 μl of S-9 (rat liver homogenate, Oriental Yeast Co., Ltd.); tissue Oriental Yeast Co., Ltd; host or cells: rat liver S-9 homogenate
T1 sequence (P24008 1-259): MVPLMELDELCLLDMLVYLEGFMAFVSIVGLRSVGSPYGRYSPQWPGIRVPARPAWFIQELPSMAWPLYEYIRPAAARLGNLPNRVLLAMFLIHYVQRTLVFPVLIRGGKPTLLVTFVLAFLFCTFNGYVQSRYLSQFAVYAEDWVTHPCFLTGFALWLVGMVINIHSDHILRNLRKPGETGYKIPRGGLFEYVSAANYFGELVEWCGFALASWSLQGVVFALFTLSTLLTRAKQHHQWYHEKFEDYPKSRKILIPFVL

[3] = sample concentration 0.06 μg/ml
[4] = sample concentration 0.25 μg/ml

**Q.** With C[C@H]1[C@H](C)CC[C@]2(C(=O)O)CC[C@]3(C)C(=CC[C@@H]4[C@@]5(C)C[C@@H](O)[C@H](O)C(C)(C)[C@@H]5CC[C@]43C)[C@H]12 [Sample 1, corosolic acid] as the compound, how does the “promotion of mRNA expression of the FGF-7 gene (in words)” value (FGF-7 gene; conclusion from Table 3) read?
**A.** promote the mRNA expression

**Q.** And the “mRNA expression promotion rate (%) FGF-7 mRNA” value (FGF-7 gene; [3])?
**A.** 122.9 ± 8.5%

**Q.** And the “mRNA expression promotion rate (%) FGF-7 mRNA” value (FGF-7 gene; [4])?
**A.** 124.8 ± 7.2%

**Q.** And the “hair papilla cell growth promoting action (in words)” value ([1]; conclusion from Table 2)?
**A.** hair papilla cell growth promoting action

**Q.** What about the “Hair papilla cell growth promotion rate (%)” value ([1]; sample concentration 1.56 μg/ml) of the same compound?
**A.** 111.5 ± 2.2%

**Q.** And the “Hair papilla cell growth promotion rate (%)” value ([1]; sample concentration 6.25 μg/ml)?
**A.** 106.1 ± 1.4%

**Q.** And the “promotion of mRNA expression of the VEGF gene (in words)” value (VEGF gene; conclusion from Table 3)?
**A.** promote the mRNA expression

**Q.** And the “mRNA expression promotion rate (%) VEGF mRNA” value (VEGF gene; [3])?
**A.** 121.8 ± 3.5%

**Q.** What about the “mRNA expression promotion rate (%) VEGF mRNA” value (VEGF gene; [4]) of the same compound?
**A.** 106.7 ± 4.5%

**Q.** And the “promotion of mRNA expression of the BMP-2 gene (in words)” value (BMP-2 gene; conclusion from Table 3)?
**A.** promote the mRNA expression

**Q.** And the “mRNA expression promotion rate (%) BMP-2 mRNA” value (BMP-2 gene; [3])?
**A.** 105.3 ± 3.8%

**Q.** What about the “mRNA expression promotion rate (%) BMP-2 mRNA” value (BMP-2 gene; [4]) of the same compound?
**A.** 135.3 ± 5.5%

**Q.** What about the IC50 ([2]; S-9 rat liver homogenate, 37° C., 30 minutes, by interpolation, read-out: IC50 (sample concentration at which the inhibition rate of testosterone 5α-reductase is 50%) (converted)) of the same compound?
**A.** 1.18 mM

**Q.** And the “testosterone 5α-reductase inhibiting action (in words)” value ([2]; conclusion from Table 1)?
**A.** excellent testosterone 5α-reductase inhibiting action
